How the values were obtained:
[1] = Conversion of Compound No. 91 to Compound No. 84 in human serum, LCMS (Test Example 5); assay type: in vitro ADME; conditions: for Proportion found by LCMS, Human, 0 minutes / Proportion found by LCMS, Human, 30 minutes: Compound No. 91 incubated in human serum/saline
Procedure: (§1) 147 μl of human serum pool (manufactured by Cosmo Bio Co. Ltd.) or pool serum obtained by centrifugation (3,500 rpm for 10 minutes) of whole blood collected from a Crj:CD (SD) IGS male rat (manufactured by Charles River Laboratories Japan, INC.) was dispensed in a tube. 147 μl of a physiological saline solution (manufactured by Hikari Pharmaceutical Co., Ltd.) was dispensed thereto. Subsequently, the whole was preincubated for 3 minutes. The solution was added and mixed with a solution (3 μl) obtained by: diluting a 25 mmol/l DMSO solution containing the Compound No. 91 with a physiological saline solution to adjust to 500 μmol/l. The reaction was allowed to start in a thermomixer. After 30 minutes later, the solution was added with 0.1% formic acid/methanol solution (600 μl) and the whole was mixed. The solution was subjected to centrifugation (15,000 rpm for 5 minutes) and the supernatant was subjected to LCMS (liquid chromatograph mass spectrometry) measurement.

[2] = test system: HIV-1IIIB infected MT-4 cells; assay: Anti-HIV activity, HIV-1IIIB infected MT-4 cells, MTT method (Test Example 1); assay type: cell-based; conditions: Human immunodeficiency virus 1, MT4, 120 h, concentration required for inhibition of cell disorder due to HIV infection by 50%, MOI 0.01, 5 days
Procedure: Immediately after infection, HIV-1IIIB infected MT-4 cells (3.0×10^4/well, MOI (Multiplicity of infection): 0.01) were added to a 96-well microtiter plate together with the test compounds having different concentrations. The cells were cultured in a carbon dioxide incubator at 37° C. for 5 days, and the number of living cells was measured in accordance with the MTT (tetrazolium) method ([…], et al., J. of Virol. Method, 20, 309-321 […]). The antiviral activity is represented by the concentration required for inhibition of cell disorder due to HIV infection by 50% (EC50: 50% Effective Concentration) (μM), and the results are shown in Table 2.

[3] = Conversion of Compound No. 91 to Compound No. 84 in rat serum, LCMS (Test Example 5); assay type: in vitro ADME; conditions: for Proportion found by LCMS, Rat, 0 minutes / Proportion found by LCMS, Rat, 30 minutes: Compound No. 91 incubated in rat serum/saline
Procedure: as §1

SD mice = assay: Acute toxicity, single transvenous administration (Test Example 3); assay type: in vivo; conditions: 6-week-old male SD mice, 2.5 mg/kg transvenously once in physiological saline
Procedure: The aforementioned compound was examined for acute toxicity. Specifically, 6-week-old SD mice (male) were divided into several groups (2 to 3 mice in each group). Subsequently, each of the compounds of Examples was dissolved in a physiological saline solution, and the solution was transvenously administered to the mice (dose: 2.5 mg/kg) once. Then, the number of dead mice was counted.

CXCR4 = biological target: T1, CXCR4 (Homo sapiens, UniProt P61073); assay: Inhibition of 125I-SDF-1α binding to receptors CXCR4 on MT-4 cells (Test Example 2); conditions: binding-inhibition % at 0.01 μM, 2 hours under ice-cooling, read-out: Inhibition rate (%)
T1 construct: endogenous in cells; host or cells: MT-4 cells
T1 sequence (P61073 whole entry): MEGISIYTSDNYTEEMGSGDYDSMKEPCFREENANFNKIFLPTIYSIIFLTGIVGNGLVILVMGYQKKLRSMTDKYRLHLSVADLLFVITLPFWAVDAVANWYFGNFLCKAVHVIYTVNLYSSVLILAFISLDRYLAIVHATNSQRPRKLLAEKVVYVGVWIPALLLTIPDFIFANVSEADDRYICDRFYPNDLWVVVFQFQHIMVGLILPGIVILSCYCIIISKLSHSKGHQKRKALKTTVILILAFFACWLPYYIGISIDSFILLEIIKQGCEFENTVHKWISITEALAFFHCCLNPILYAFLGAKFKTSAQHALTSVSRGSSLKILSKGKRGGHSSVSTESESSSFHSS
Procedure: MT-4 cells (5×10^6/0.2 ml/well) were cultured on a 24-well microtiter plate. After the cells were incubated for 24 hours at 37° C. in a carbon dioxide gas incubator, a culture medium was replaced with a buffer solution (0.1% BSA-containing RPMI-1640). Together with a ligand ^125I-SDF-1α (specific activity: 2,200 Ci/mmol; available from Daiichi Pure Chemicals Co., Ltd. (Tokyo)), test materials with various concentrations were subjected to a binding reaction for 2 hours under ice-cooling. […] Then, a rate of inhibition of the binding between radioactive ligands and receptors CXCR4 by a test material was calculated (a binding-inhibition % at 0.01 μM).

CCCN(CCC)CCCCN(CC(=O)O)Cc1ccc(CN(Cc2ncc[nH]2)Cc2nccn2C)cc1 [Compound No. 84, [(4-dipropylamino-butyl)-(4-[[(1H-imidazol-2-ylmethyl)-(1-methyl-1H-imidazol-2-ylmethyl)-amino]-methyl]-benzyl)-amino]-acetic acid]
Proportion found by LCMS, Human, 0 minutes [1]: 1% | Proportion found by LCMS, Human, 30 minutes ([1]; 30 minutes): 80% | EC50 [2]: 3 nM | Proportion found by LCMS, Rat, 0 minutes [3]: 24% | Proportion found by LCMS, Rat, 30 minutes ([3]; 30 minutes): 100% | Dead mice/test mice (SD mice): 0/3 | inhibition at 0.01 µM (CXCR4): 88.3%

CCCN(CCC)CCCCN(CC(=O)OC)Cc1ccc(CN(Cc2ncc[nH]2)Cc2ncc[nH]2)cc1 [Compound No. 87, [(4-[[bis-(1H-imidazol-2-ylmethyl)-amino]-methyl]-benzyl)-(4-dipropylamino-butyl)-amino]-acetic acid methyl ester]
EC50 [2]: 3 nM | Dead mice/test mice (SD mice): 0/3 | inhibition at 0.01 µM (CXCR4): 82.1%

CCCN(CCC)CCCCN(CC(=O)O)Cc1ccc(CN(Cc2ncc[nH]2)Cc2ncc[nH]2)cc1 [Compound No. 88, [(4-[[bis-(1H-imidazol-2-ylmethyl)-amino]-methyl]-benzyl)-(4-dipropylamino-butyl)-amino]-acetic acid]
EC50 [2]: 2 nM | Dead mice/test mice (SD mice): 0/3 | inhibition at 0.01 µM (CXCR4): 85%

CCCN(CCC)CCCCN(CC(=O)OCC)Cc1ccc(CN(Cc2ncc[nH]2)Cc2nccn2C)cc1 [Compound No. 91]
Proportion found by LCMS, Human, 0 minutes [1]: 99% | Proportion found by LCMS, Human, 30 minutes ([1]; 30 minutes): 20% | conversion of prodrug in serum ([1]; human serum, 30 minutes): converted to the Compound No. 84 | EC50 [2]: 3 nM | Proportion found by LCMS, Rat, 0 minutes [3]: 76% | Proportion found by LCMS, Rat, 30 minutes ([3]; 30 minutes): 0% | conversion of prodrug in serum ([3]; rat serum, 30 minutes): converted to the Compound No. 84 | Dead mice/test mice (SD mice): 0/3 | inhibition at 0.01 µM (CXCR4): 87.7%

CCCN(CCC)CCCCN(CC(=O)OCC)Cc1ccc(CN(Cc2ncc[nH]2)Cc2ncc[nH]2)cc1 [Compound No. 97, [(4-[[bis-(1H-imidazol-2-ylmethyl)-amino]-methyl]-benzyl)-(4-dipropylamino-butyl)-amino]-acetic acid ethyl ester]
EC50 [2]: 1 nM | Dead mice/test mice (SD mice): 0/3 | inhibition at 0.01 µM (CXCR4): 85.6%

CCCN(CCC)CCCCN(CC(=O)O)Cc1ccc(CN(Cc2nccn2C)Cc2nccn2C)cc1 [Compound No. 100, [(4-[[bis-(1-methyl-1H-imidazol-2-ylmethyl)-amino]-methyl]-benzyl)-(4-dipropylamino-butyl)-amino]-acetic acid]
EC50 [2]: 2 nM | Dead mice/test mice (SD mice): 0/3 | inhibition at 0.01 µM (CXCR4): 79.2%
